Measurements taken from publication PMC5327789 (Journal of natural products, 2016).

Columns and labels:
[1] = system: WI-38 cell line (normal embryonic lung tissue); type: cell-based
[2] = system: P. falciparum strain Dd2 (chloroquine-resistant); assay: P. falciparum in vitro growth inhibition assay; type: cell-based, Plasmodium falciparum; conditions: for antiplasmodial activity in words: highest concentration tested 25 μM

With COC(=O)/C(C)=C1/C(=O)[C@H](O)[C@]2(C)C3=C(C[C@@H]4[C@]5(OC(=O)C6=C5C[C@H]5[C@](O)(COC(=O)/C=C(\C)COC(=O)CCC(=O)OC6)[C@H]6C[C@H]6[C@]45C)[C@H]31)[C@H]1C[C@H]12 [Compound 7, Fortunilide G] the “decrease of mammalian cytotoxicity compared with counterpart” value ([1]; human, 24 h) was 5 fold.

In the case of COC(=O)/C(C)=C1\C(=O)[C@H](O)[C@]2(C)C3=C(C[C@@H]4[C@]5(OC(=O)C(C)=C5C[C@H]5[C@H](COC(C)=O)[C@H]6C[C@H]6[C@]45C)[C@H]31)[C@H]1C[C@H]12 [Compound 25, shizukaol E], the “antiplasmodial activity in words” value [2] is reported as “micromolar range”.

COC(=O)CCC(=O)OC/C(C)=C/C(=O)OC[C@]1(O)[C@H]2C[C@H]2[C@]2(C)[C@@H]3C[C@@]4(OO)C5=C(/C(=C(\C)C(=O)OC)C(=O)[C@H](O)[C@@]5(C)[C@@H]5C[C@@H]54)[C@@]34OC(=O)C(CO)=C4C[C@@H]12 [Compound 4, Fortunilide D] was tested, and the “increase of toxicity toward mammalian cells compared with counterpart” value ([1]; human, 24 h) was 6 fold.

For C/C=C(\C)C(=O)OC[C@]1(O)[C@H]2C[C@H]2[C@]2(C)[C@@H]3C[C@@]4(O)C5=C(/C(=C(\C)C(=O)OC)C(=O)[C@H](O)[C@@]5(C)[C@@H]5C[C@@H]54)[C@@]34OC(=O)C(COC(C)=O)=C4C[C@@H]12 [Compound 27, sarcandrolide E], the “antiplasmodial activity in words” value [2] was “inactive”.

With COC(=O)/C(C)=C1\C(=O)[C@H](O)[C@]2(C)C3=C(C[C@@H]4[C@]5(OC(=O)C6=C5C[C@H]5[C@](O)(COC(=O)/C(C)=C/COC(=O)[C@@H](O)CC(=O)OC6)[C@H]6C[C@H]6[C@]45C)[C@H]31)[C@H]1C[C@H]12 [Compound 29, shizukaol G] the “increase of toxicity toward mammalian cells compared with counterpart” value ([1]; human, 24 h) was ~ 10 fold.

With shizukaol C [Compound 17] the IC50 ([2]; read-out: P. falciparum IC50, Table 6) was 21 nM and the IC50 ([1]; read-out: WI-38 IC50, WI-38 cell line, 24 h incubation) was 770 nM.

C=C1[C@@H]2C[C@@H]2[C@]2(C)[C@@H]3CC4=C5[C@H](/C(=C(\C)C(=O)OC)C(=O)[C@H](O)[C@@]5(C)[C@@H]5C[C@H]45)[C@@]34OC(=O)C(C)=C4C[C@@H]12 [Compound 32, shizukaol A] was tested, and the “antiplasmodial activity in words” value [2] was “micromolar range”.
